According to ChEMBL document CHEMBL5058646 (2022):

Assays:
[1] = biological target: Casein kinase I isoform delta (Homo sapiens) (UniProt P48730); experiment: CSNK1D SGC Tm panel (DSF); conditions: Compound concentration 20.0 uM
[2] = biological target: Sigma intracellular receptor 2 (Homo sapiens, UniProt Q5BJF2); conditions: Compound concentration 10.0 uM
[3] = biological target: T1, Zinc finger and BTB domain-containing protein 24 (Homo sapiens) (UniProt O43167); conditions: SUD4, Compound concentration 1.0 uM
T1 sequence (whole entry): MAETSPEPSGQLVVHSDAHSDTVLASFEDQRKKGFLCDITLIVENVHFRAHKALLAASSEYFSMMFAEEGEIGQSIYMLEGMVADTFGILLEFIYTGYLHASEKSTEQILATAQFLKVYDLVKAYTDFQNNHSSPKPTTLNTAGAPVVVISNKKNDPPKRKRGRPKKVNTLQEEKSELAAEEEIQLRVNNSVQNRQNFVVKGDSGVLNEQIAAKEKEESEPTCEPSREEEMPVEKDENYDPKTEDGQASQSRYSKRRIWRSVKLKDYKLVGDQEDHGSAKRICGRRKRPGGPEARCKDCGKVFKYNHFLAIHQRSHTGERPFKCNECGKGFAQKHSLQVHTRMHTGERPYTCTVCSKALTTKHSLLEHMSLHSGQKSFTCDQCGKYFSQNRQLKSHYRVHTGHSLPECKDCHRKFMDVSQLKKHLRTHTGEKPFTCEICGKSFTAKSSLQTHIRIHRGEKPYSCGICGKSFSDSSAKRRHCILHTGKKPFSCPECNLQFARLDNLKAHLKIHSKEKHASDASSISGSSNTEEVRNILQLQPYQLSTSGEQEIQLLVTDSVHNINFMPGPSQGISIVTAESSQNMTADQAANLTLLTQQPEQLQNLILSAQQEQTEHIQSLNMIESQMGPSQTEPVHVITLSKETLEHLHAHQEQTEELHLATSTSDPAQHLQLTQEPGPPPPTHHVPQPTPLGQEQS

Mu-type opioid receptor = Mu-type opioid receptor (Homo sapiens, UniProt P35372); experiment: GPCRScan assay: inhibition of MOR; set-up: radioligand conc. used [nm] 1.0 – 2.0, parental cells stable HEK
Sequence of Mu-type opioid receptor (P35372 whole entry, the tested form may be a part): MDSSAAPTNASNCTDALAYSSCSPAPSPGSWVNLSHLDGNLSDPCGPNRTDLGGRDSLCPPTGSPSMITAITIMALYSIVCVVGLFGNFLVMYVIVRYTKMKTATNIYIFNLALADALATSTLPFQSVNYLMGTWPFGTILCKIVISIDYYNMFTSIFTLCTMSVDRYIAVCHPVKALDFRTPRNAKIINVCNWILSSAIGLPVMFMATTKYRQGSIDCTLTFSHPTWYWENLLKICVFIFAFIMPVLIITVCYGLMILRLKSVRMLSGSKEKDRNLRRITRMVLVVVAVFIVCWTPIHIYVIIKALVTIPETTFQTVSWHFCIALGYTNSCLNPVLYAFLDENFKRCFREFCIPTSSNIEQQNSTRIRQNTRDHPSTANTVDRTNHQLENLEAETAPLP

[4] = biological target: Zinc finger and BTB domain-containing protein 14 (Homo sapiens) (UniProt O43829); conditions: SUD4, Compound concentration 1.0 uM
Sequence of Zinc finger and BTB domain-containing protein 14 (Homo sapiens) (O43829 whole entry, the tested form may be a part): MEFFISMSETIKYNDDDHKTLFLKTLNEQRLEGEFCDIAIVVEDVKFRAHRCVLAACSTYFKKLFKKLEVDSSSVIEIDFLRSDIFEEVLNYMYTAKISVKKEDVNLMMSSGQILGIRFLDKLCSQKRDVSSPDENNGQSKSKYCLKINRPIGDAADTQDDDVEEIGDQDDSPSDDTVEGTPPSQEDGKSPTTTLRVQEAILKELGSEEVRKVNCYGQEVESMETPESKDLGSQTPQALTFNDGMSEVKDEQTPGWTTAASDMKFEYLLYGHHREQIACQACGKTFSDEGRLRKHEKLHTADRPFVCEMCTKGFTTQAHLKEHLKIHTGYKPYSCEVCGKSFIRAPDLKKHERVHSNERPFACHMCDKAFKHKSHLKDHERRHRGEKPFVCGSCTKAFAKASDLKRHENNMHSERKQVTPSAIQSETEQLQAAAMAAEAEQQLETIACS

[5] = biological target: Calcium/calmodulin-dependent protein kinase kinase 2 (Homo sapiens) (UniProt Q96RR4); experiment: CAMKK2 SGC Tm panel (DSF); conditions: Compound concentration 20.0 uM
Sequence of Calcium/calmodulin-dependent protein kinase kinase 2 (Homo sapiens) (Q96RR4 2-588 limits assumed): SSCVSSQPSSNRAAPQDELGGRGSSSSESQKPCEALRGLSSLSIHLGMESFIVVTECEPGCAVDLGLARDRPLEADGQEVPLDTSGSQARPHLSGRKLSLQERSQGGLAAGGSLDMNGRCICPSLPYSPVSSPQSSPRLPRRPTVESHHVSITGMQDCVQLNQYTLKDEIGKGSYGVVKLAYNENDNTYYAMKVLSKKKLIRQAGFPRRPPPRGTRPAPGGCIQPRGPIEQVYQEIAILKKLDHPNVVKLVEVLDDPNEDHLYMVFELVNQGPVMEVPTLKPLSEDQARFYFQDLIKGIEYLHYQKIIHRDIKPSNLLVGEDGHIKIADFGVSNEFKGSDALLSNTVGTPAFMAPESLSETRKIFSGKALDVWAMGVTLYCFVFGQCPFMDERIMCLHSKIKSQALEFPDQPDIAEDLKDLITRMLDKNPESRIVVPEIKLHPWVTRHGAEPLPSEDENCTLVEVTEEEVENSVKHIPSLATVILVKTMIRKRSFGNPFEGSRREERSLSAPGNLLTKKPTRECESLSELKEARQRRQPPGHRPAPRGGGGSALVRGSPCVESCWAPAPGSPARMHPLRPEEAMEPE

[6] = biological target: Aurora kinase B (Homo sapiens) (UniProt Q96GD4); experiment: AURKB SGC Tm panel (DSF); conditions: Compound concentration 20.0 uM
Sequence of Aurora kinase B (Homo sapiens) (Q96GD4 whole entry, the tested form may be a part): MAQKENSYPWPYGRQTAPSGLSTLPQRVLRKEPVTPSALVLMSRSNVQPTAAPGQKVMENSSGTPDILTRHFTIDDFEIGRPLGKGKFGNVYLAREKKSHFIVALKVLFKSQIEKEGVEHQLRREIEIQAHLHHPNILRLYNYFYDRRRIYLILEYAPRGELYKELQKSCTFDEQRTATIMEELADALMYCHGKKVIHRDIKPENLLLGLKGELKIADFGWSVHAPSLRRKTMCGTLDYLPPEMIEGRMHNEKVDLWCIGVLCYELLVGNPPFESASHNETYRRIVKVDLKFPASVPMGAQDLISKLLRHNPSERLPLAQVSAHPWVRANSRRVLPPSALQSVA

[7] = biological target: T2, Zinc finger and BTB domain-containing protein 40 (Homo sapiens) (UniProt Q9NUA8); conditions: OCI-Ly1, Compound concentration 1.0 uM
T2 sequence (whole entry): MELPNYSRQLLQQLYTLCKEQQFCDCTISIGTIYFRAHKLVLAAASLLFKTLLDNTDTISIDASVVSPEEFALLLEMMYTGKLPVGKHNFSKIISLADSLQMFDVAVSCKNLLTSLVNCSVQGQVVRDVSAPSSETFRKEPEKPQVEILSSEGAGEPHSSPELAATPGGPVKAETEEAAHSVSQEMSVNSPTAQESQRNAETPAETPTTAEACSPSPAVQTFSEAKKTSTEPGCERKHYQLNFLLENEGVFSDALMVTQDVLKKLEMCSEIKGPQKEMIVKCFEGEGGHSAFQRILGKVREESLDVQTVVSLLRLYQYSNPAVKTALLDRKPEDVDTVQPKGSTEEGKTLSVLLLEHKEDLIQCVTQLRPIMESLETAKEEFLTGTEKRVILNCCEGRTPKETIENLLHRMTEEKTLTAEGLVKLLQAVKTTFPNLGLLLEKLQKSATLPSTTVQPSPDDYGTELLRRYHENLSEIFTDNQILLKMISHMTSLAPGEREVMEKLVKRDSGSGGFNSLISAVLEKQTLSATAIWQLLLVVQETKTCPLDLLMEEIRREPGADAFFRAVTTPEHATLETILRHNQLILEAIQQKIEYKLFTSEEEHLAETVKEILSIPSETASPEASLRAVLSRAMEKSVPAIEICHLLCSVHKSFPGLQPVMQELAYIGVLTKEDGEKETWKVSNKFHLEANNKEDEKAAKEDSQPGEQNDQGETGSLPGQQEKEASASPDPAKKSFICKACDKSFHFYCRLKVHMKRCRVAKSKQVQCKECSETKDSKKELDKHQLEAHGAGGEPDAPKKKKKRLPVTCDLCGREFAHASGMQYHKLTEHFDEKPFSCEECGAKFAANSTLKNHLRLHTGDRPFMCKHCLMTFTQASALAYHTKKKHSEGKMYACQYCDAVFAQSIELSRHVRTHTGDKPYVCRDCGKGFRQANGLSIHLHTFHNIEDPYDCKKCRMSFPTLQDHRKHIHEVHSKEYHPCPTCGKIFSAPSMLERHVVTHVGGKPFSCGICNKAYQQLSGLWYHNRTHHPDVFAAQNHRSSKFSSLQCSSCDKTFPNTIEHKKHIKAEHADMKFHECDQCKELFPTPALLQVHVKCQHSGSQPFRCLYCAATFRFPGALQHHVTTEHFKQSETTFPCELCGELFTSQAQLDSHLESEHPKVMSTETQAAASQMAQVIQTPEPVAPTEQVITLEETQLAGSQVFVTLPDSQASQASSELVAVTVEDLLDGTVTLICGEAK

[8] = biological target: Zinc finger and BTB domain-containing protein 43 (Homo sapiens) (UniProt O43298); conditions: SUD4, Compound concentration 1.0 uM
Sequence of Zinc finger and BTB domain-containing protein 43 (Homo sapiens) (O43298 whole entry, the tested form may be a part): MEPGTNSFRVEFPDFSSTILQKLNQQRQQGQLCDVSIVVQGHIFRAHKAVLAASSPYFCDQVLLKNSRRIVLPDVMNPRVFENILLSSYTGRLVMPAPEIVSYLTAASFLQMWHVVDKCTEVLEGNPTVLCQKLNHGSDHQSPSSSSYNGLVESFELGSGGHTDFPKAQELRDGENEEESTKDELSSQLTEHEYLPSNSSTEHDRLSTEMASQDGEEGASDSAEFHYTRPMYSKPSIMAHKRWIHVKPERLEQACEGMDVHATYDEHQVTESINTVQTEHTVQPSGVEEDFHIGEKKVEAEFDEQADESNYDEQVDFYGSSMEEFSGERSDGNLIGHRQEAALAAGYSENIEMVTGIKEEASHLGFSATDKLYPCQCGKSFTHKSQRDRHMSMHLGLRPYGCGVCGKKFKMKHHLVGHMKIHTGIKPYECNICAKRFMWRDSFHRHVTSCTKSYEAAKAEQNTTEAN

[9] = biological target: 5-hydroxytryptamine receptor 2B (Homo sapiens) (UniProt P41595); conditions: Compound concentration 10.0 uM
Sequence of 5-hydroxytryptamine receptor 2B (Homo sapiens) (P41595 whole entry, the tested form may be a part): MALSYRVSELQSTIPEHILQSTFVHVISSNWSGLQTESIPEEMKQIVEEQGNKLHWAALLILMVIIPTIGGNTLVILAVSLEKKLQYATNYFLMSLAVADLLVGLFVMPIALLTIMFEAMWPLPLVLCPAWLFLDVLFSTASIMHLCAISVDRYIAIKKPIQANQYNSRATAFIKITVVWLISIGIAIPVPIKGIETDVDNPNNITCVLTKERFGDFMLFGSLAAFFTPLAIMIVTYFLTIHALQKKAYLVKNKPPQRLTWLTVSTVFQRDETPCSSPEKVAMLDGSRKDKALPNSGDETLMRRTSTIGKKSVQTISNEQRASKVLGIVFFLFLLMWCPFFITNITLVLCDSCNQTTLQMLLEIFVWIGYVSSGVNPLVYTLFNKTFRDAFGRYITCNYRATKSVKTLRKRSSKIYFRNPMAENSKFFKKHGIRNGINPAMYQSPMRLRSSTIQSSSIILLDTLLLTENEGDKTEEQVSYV

[10] = biological target: T3, Zinc finger and BTB domain-containing protein 2 (Homo sapiens) (UniProt Q8N680); conditions: SUD4, Compound concentration 1.0 uM
T3 sequence (whole entry): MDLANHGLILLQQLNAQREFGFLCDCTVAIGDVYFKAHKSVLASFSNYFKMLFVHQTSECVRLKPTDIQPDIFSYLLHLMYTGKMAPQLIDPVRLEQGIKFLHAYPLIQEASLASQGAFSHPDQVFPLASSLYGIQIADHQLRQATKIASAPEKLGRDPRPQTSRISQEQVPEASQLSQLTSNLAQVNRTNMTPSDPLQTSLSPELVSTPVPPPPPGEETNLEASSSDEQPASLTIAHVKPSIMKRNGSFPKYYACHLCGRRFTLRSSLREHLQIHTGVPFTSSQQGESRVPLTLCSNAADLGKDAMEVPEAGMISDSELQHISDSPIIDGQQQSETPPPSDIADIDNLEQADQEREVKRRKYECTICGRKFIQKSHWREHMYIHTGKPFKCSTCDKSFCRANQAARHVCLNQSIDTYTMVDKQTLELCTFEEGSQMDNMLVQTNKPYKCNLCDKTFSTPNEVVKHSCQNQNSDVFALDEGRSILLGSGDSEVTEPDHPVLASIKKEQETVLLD

Sequence of Casein kinase I isoform delta (Homo sapiens) (P48730 whole entry, looked up, canonical isoform): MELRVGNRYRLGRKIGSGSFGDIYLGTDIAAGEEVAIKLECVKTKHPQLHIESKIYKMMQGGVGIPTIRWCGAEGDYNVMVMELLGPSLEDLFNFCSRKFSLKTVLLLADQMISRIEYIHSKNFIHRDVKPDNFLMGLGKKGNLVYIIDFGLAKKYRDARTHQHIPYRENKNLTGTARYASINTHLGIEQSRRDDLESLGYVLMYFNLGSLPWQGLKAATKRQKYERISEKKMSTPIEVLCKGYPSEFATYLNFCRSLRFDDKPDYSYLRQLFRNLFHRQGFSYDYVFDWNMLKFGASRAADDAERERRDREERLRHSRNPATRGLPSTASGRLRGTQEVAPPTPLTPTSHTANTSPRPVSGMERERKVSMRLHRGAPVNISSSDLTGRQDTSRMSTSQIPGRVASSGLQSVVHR
Sequence of Sigma intracellular receptor 2 (Q5BJF2 whole entry, the tested form may be a part): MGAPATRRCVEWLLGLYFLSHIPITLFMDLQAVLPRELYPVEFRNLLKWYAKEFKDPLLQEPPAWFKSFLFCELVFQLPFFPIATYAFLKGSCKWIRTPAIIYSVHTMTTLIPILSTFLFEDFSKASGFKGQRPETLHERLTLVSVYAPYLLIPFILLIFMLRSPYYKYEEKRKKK

Tm [1]: 52 °C
inhibition [2]: 85.7%
LogFC [3]: 0.00149
Ki (Mu-type opioid receptor; read-out: Ki): 872 nM
Ki (Mu-type opioid receptor; read-out: pKi (converted)): 851 nM
LogFC [4]: 0.0306
Tm [5]: 38 °C
Tm [6]: 46 °C
LogFC [7]: -0.194
LogFC [8]: 0.0194
inhibition [9]: 34.6%
LogFC [10]: 0.153
Compound: C[C@@H]1CN(c2ncc(Cl)c(Nc3ccc4c(c3)n(CCC(C)(C)O)c(=O)n4C)n2)C[C@H](C)C1(F)F
